In one assay the target is Hsp90α Protein (Homo sapiens, UniProt P07900). Nature of the assay: Hsp90 CE Competitive Binding Assay (displacement of fluorescein-labelled geldanamycin). Here is the method: Hsp90 CE Competitive Binding Assay: […]
b) “Competitor”, fluorescein-labelled geldanamycin • The competitor was synthesized as described by Llauger-Bufi et al, Bioorg.
The electrophoresis running buffer (RB) is comprised of 200 mM CAPSO, pH 9.2 (pH-adjusted with Trizma base). The sample buffer (SB) is comprised of 10 mM Trizma base, pH 8.0 (pH-adjusted with glacial acetic acid), 5 mM MgCl2, 5 mM DTT, and BSA and Triton as noted.
Capillary electrophoresis was performed on Cetek Gemini Systems™ using laser-induced fluorescence detection. Fused-silica capillaries (50 μm I.D.×30 cm, approximately 10 cm length from end to detection window) were internally coated using Cetek's proprietary methods.
Each sample (i.e., fermentation extract, partially-purified fraction, or compound mixture, or pure compound) to be assayed is prediluted 1:20 or 1:40 in SB containing 0.02% Triton. 1 μl of each prediluted sample is then deposited into a 96-well microtiter plate and mixed with 8 μl of Target Cocktail. These samples can be stored at 4° C. until ready for assay.
When ready for analysis, the plates are transferred to the deck of a Gemini System. To each mixture of sample and target, 1 μl of Competitor Cocktail is added and mixed thoroughly. This reaction mixture is allowed to incubate for 8 minutes on the refrigerated deck of the Gemini System (temperature 8° C.). During incubation, the CE capillary is rinsed for 30 seconds with RB containing 2 mg/ml BSA, and then 60 seconds with RB. At the end of incubation, a small plug of the reaction mixture is then injected into the capillary at low pressure (0.5 psi) for 7 seconds. The loaded capillary is then dipped into reservoirs containing RB and the sample is electrophoresed at 10 kV for 6 minutes at a temperature of 8° C.
The electrophoretic separation produces a graphical profile known as an “electropherogram,” which contains a peak representing the intact complex between Hsp90 and competitor, and a smaller series (typically, a triplet) of peaks representing unbound competitor. […] Dose-response experiments, which evaluate the degree of competitor displacement as a function of sample concentration, are subsequently run in triplicate to validate hits and to quantitate their potencies, which are expressed as IC50 values.
Negative controls are comprised of 0.5% DMSO, and positive controls are comprised of 0.1 μg/ml 17-AAG.

Assay [1] relates to Hsp90 (luciferase refolding, cancer cell lysate). Put plainly: Luciferase Refolding Assay. Type of assay: biochemical. The following applies: inhibition of luciferase refolding by Hsp90. As to the method: Luciferase Refolding Assay
• A. Cancer cells are cultured according to ATCC guidelines. Cell lysates are prepared as follows to be used as source of heat shock proteins: Resuspend the washed cell pellet in 3˜10 packed cell volumes of Buffer A (10 mM HEPES pH 7.9, 1.5 mM MgCl2, 10 mM KCl, 0.5 mM DTT, and 0.2 mM PMSF). Spin at 2000 rpm for 5 minutes in GS-6R (Beckman) centrifuge, 4° C. and resuspend cells in Buffer A up to a final of 3 packed cell volumes (i.e., add ˜2 volumes). Incubate on ice for 10 minutes. Transfer the cells to a Wheaton A Dounce homogenizer and lyse with 10-25 strokes. Stain an aliquot with Trypan Blue and check for >90% lysis under microscope. Spin the homogenized mixture at 3000 rpm for 20 minutes in GS-6R (Beckman) centrifuge, 4° C., to pellet nuclei. To the cytoplasmic fraction (cell lysate), add 1 mM ATP, 14.3 mM creatine phosphate, 71 μg/ml phosphokinase, 3 mM DTT, 113 mM KAc, and 0.7 mM MgAc2. Aliquot into eppendorf tubes and freeze at −80° C. • B. Luciferase Stability Buffer (SB): 25 mM Tris-HCl, pH 7.8; 8 mM MgSO4; 0.1 mM EDTA; 10 mg/ml BSA; 10% Glycerol; 0.25% Triton X-100. Make 2×SB and store at −20° C. • C. Cell Lysate (CL) Buffer: Buffer A containing 1 mM ATP; 14.3 mM creatine phosphate; 71 ug/ml phosphokinase; 3 mM DTT; 113 mM KAc; and 0.7 mM MgAc2. • D. Luciferase: Promega E1701, 14.9 mg/ml=244 μM. Dilute 1:60 in 30 mM Tris-HCl, pH 7.4, 2 mM DTT, and 20% glycerol, resulting in a stock luciferase solution with concentration of 4 μM (250 ng/μl). • E. Luciferase substrate: Promega E1500. Procedure: • 1) Mix luciferase solution 1:1 with 2× SB buffer. Incubate at 42° C. for 8 min to denature. […] Data analysis: Luciferase refolding activity of a cell lysate sample with or without HSP90 inhibitor is represented as the net of luminescence reading from a cell lysate sample subtracting results from negative control (no cell lysate or heat shock proteins). Inhibition effect of a compound is calculated as the percentage of refolding activity relative to samples without any inhibitors in the cell lysate.
The ability of selected compounds of the invention to inhibit luciferase refolding by Hsp90 based on this assay is summarized in Table 14.

For assay [2], the system named is HER2/Neu protein in SK-OV-3 cells. Nature of the assay: Hsp90 Client Protein Degradation Assay. Format: cell-based. The following applies: for IC50: Homo sapiens, 50% degradation of HER2/Neu protein, SK-OV-3 cells, overnight. Here is the method: Hsp90 Client Protein Degradation Assay
SK-OV-3 cells were obtained from ATCC (Rockville, Md.) and maintained in McCoy's 5A Media with 10% Fetal Bovine Serum (ATCC) at 37° C. with 5% CO2 in humidified incubators. Cells were plated at 2 ml per well at 100,000 cells/ml in six well dishes. Cells were incubated overnight at 37° C. and given test agent compound the following day in a titrated series. Cell incubation in the presence of compound proceeded overnight at 37° with 5% CO2 in media in the presence of serum. The following day media was aspirated and cells washed on plate with 2 mls of cold D-PBS. 100 ul of 1× Laemli's buffer was added to each well and total protein obtained by scraping the cell pellet and removing to 1.5 ml Eppendorf tube on ice. Cells were further lysed and DNA was fragmented by sonication and cells debris pelleted at 14 K for 3 min at 4° C. 20 ul was loaded per well and fractionated on PAGE gels. Western analyses were performed using abs specifically for the Hsp90 client proteins HER-2 (Santa Cruz Biotech, Santa Cruz, Calif.) and c-raf-1 (Cell Signaling Technology, Danvers, Mass.). Loading per well was controlled by testing for g-actin on Western Blots (Cell Signaling Technology) simultaneous to testing for HER-2 or c-raf-1. Detection was via a secondary antibody conjugated to Horse radish peroxidase (HRP) and enhanced chemiluminescent detection from Supersignal West Pico Detection Kits from Pierce (Rockford, Ill.). Autoradiography was via Kodak X-OMAT film and developing via a Kodak M35 film processor.

The test system of the next assay is Human cancer cell lines. Put plainly: Cancer-Derived Cell Line Growth Inhibition Assays. Conditions: 72 h, 3 days, Cell Titer Blue. Type of assay: cell-based. As to the method: Cancer-Derived Cell Line Growth Inhibition Assays
Human cancer cell lines were obtained from ATCC (Rockville, Md.) and maintained according to their media specifications at 37° C. in humidified incubators with or without 5% CO2. Cells were plated at 0.1 ml/well of 50,000 cells per ml in 96 well plates. Monolayer grown cells were incubated overnight prior to the addition of compound while cells grown in suspension are given compound on the same day as plating. The test agent is titrated in duplicate for each compound and concentration tested. Cells are incubated in the presence of compound at 37° C. in humidified incubators for 3 days prior to addition of 20 ul of Cell Titer Blue (Promega, Madison, Wis.) which quantifies total cellular metabolic activity by conversion of resazurin to resorufin. Cell titer blue measures metabolic activity by quantifying the amount of biological activity present in a well using reduction of the dye resazurin as an end-point metric. Cells then are allowed to incubate at 37° C. for 2 hours and then analyzed using a Bio-TEK (Winooski, Vt.) Synergy HT 96/384 well plate reader set for 530 nm/590 nm, Ex/Em. Data analysis and depiction is conducted using EXCEL.

Where [3] appears, read: initial structure activity relationship table, read-out: HSP90 CE IC50.
Where [4] appears, read: Table 14, inhibition of binding of labeled geldanamycin to Hsp90, read-out: CE IC50.
Where [5] appears, read: versus corresponding alcohol (R═H).

The structures appear in SMILES notation. Like-named read-outs stand apart in the source and are kept apart here. Bounds are passed on as bounds.

With `Nc1ncnc2c1ncn2C1OC(COP(=O)(O)O)C(O)C1O` (centres unmarked) [AMP, reference compound], the half-maximal inhibitory concentration (IC50) on Hsp90α Protein (setting [3]) is greater than 144000 nM.

Turning to `Nc1nc(F)nc2c1nc(Cc1cc3c(cc1I)OCO3)n2CCOS(N)(=O)=O` [Example 1, Sulfamic Acid 2-[6-amino-2-fluoro-8-(6-iodo-benzo[1,3]dioxol-5-ylmethyl)-purin-9-yl]-ethyl ester], the IC50 on Hsp90α Protein (setting [4]) was less than 40 nM; in assay [1], less than 1000 nM; in assay [2], less than 3000 nM; with Human cancer cell lines, less than 5000 nM.

On to `Nc1nc(F)nc2c1nc(Cc1cc3c(cc1I)OCO3)n2CCCOS(N)(=O)=O` [Example 2, Sulfamic Acid 3-[6-Amino-2-fluoro-8-(6-iodo-benzo[1,3]dioxol-5-ylmethyl)-purin-9-yl]-propyl ester], for which the half-maximal inhibitory concentration (IC50) at Hsp90α Protein (setting [4]) is less than 40 nM; in assay [1] it was less than 1000 nM; in assay [2] it was less than 3000 nM; in the assay with Human cancer cell lines, less than 5000 nM.

Take `Nc1nc(F)nc2c1nc(Cc1cc3c(cc1I)OCO3)n2CCCCCOS(N)(=O)=O` [Example 4, Sulfamic Acid 5-[6-amino-2-fluoro-8-(6-iodo-benzo[1,3]dioxol-5-ylmethyl)-purin-9-yl]-pentyl ester]: the IC50 is less than 40 nM at Hsp90α Protein (setting [4]), less than 1000 nM in assay [1], less than 3000 nM in assay [2] and less than 5000 nM in the assay with Human cancer cell lines.

`Nc1nc(F)nc2c1nc(Cc1cc3c(cc1I)OCO3)n2CCCCCCOS(N)(=O)=O` [Example 5, Sulfamic Acid 6-[6-amino-2-fluoro-8-(6-iodo-benzo[1,3]dioxol-5-ylmethyl)-purin-9-yl]-hexyl ester]: the IC50 was less than 40 nM at Hsp90α Protein (setting [4]), less than 1000 nM in assay [1], less than 3000 nM in assay [2] and less than 5000 nM in the assay on Human cancer cell lines. Also, the “more activity than the corresponding alcohol (R═H), CE Hsp90 assay” value on Hsp90α Protein (setting [5]) was 35 fold. Also, in assay [2] (setting [5]), the “more activity than the corresponding alcohol (R═H), client protein assay” value came out at 16 fold.

With `Nc1nc(F)nc2c1nc(Cc1cc3c(cc1I)OCO3)n2CCCCCCCOS(N)(=O)=O` [Example 6, Sulfamic Acid 7-[6-amino-2-fluoro-8-(6-iodo-benzo[1,3]dioxol-5-ylmethyl)-purin-9-yl]-heptyl ester], the IC50 at Hsp90α Protein (setting [4]) is less than 40 nM; in assay [1], less than 1000 nM; in assay [2], less than 3000 nM; with Human cancer cell lines, less than 5000 nM.

Consider `Nc1nc(F)nc2c1nc(Cc1cc3c(cc1I)OCO3)n2CCCCCCCCOS(N)(=O)=O` [Example 7, Sulfamic Acid 8-[6-amino-2-fluoro-8-(6-iodo-benzo[1,3]dioxol-5-ylmethyl)-purin-9-yl]-octyl ester], for which the IC50 at Hsp90α Protein (setting [4]) was less than 2000 nM; in assay [2], less than 50000 nM; in the assay on Human cancer cell lines, less than 100000 nM.

As for `Nc1nc(F)nc2c1nc(Cc1cc3c(cc1I)OCO3)n2CCOCCOS(N)(=O)=O` [Example 8, Sulfamic Acid 2-{2-[6-amino-2-fluoro-8-(6-iodo-benzo[1,3]dioxol-5-ylmethyl)-purin-9-yl]-ethoxy}-ethyl ester], the half-inhibitory concentration (IC50) was less than 40 nM at Hsp90α Protein (setting [4]), less than 1000 nM in assay [1], less than 3000 nM in assay [2] and less than 5000 nM with Human cancer cell lines.

Consider `Nc1nc(F)nc2c1nc(Cc1cc3c(cc1I)OCO3)n2CCOCCCOS(N)(=O)=O` [Example 9, Sulfamic Acid 3-{2-[6-amino-2-fluoro-8-(6-iodo-benzo[1,3]dioxol-5-ylmethyl)-purin-9-yl]-ethoxy}-propyl ester], for which the concentration for half-maximal inhibition (IC50) at Hsp90α Protein (setting [4]) is less than 40 nM; in assay [1], less than 1000 nM; in assay [2] it was less than 3000 nM; in the assay on Human cancer cell lines, less than 5000 nM.

For the compound `Nc1nc(F)nc2c1nc(Cc1cc3c(cc1I)OCO3)n2CCOCCCCOS(N)(=O)=O` [Example 10, Sulfamic Acid 4-{2-[6-amino-2-fluoro-8-(6-iodo-benzo[1,3]dioxol-5-ylmethyl)-purin-9-yl]-ethoxy}-butyl ester], the concentration for half-maximal inhibition (IC50) on Hsp90α Protein (setting [4]) was less than 40 nM; in assay [1] it was less than 1000 nM; in assay [2] it was less than 3000 nM; in the assay with Human cancer cell lines it was less than 5000 nM.

In the case of `Nc1nc(F)nc2c1ncn2C1OC(COS(N)(=O)=O)C(O)C1O` (centres unmarked) [FSA, reference compound], the half-inhibitory concentration (IC50) at Hsp90α Protein (setting [3]) turned out to be 700 nM.

`Nc1nc(F)nc2c1ncn2C1OC(CO)C(O)C1O` (centres unmarked) [Fluoroadenosine (FA), Fluoroadenosine, reference compound] yielded an IC50 on Hsp90α Protein of 22000 nM.

In the case of `Nc1nc(F)nc2[nH]c(Cc3cc4c(cc3I)OCO4)nc12` [Intermediate 5, 2-Fluoro-8-(6-iodo-benzo[1,3]dioxol-5-ylmethyl)-9H-purin-6-ylamine], the IC50 at Hsp90α Protein (setting [4]) was less than 2000 nM; in assay [1] it was less than 5000 nM; in assay [2], less than 50000 nM; with Human cancer cell lines, less than 100000 nM.

The values above are taken from patent US20080096903A1, “SULFAMOYL-CONTAINING DERIVATIVES AND USES THEREOF” (Wyeth, priority 2006, published 2008).
